# Patent US9846167B2 (priority 2013, dated 2017)
# Read-outs that look alike come from different tables or passages of the source.
# Experiments:
# [1] = format: binding; settings: hydroxyapatite nanoparticles in PBS, single stain, FIG. 1
# Procedure: Samples were analyzed using the Apogee A50 Nanoscale Flow Cytometer.
# An isotype negative control was prepared for each Alendronate compound. […] (AL-Cy5) was Notdronate-Cy5 (NT-Cy5).
# [2] = single stain
Substance,probe-positive events (AL-positive / NT-positive background) [1],"probe-positive events, probe versus its isotype negative control ([2]; MGUS patient plasma, FIG. 4)","probe-positive events, probe versus its isotype negative control ([2]; Multiple Myeloma patient plasma, FIG. 8)","probe-positive events ([2]; healthy volunteer plasma, FIG. 2)","probe-positive events, probe versus its isotype negative control ([2]; plasma of another MGUS patient, FIG. 6)"
Sulfo-Cy5 alendronate [AL-Cy5],significantly higher AL-positive events,–,–,–,–
fluorescein-4-butanol [NT-FITC],minimal,higher count of events,higher count of events,significantly higher,higher count of events
FITC alendronate [AL-FITC],significantly higher AL-positive events,–,–,–,–
